Source: ChEMBL document CHEMBL1130899, “Development of dual-acting agents for thromboxane receptor antagonism and thromboxane synthase inhibition. 2. Design, synthesis, and evaluation of a novel series of phenyl oxazole derivatives” (Bioorg Med Chem Lett, 1998)

Assays:
[1] = Partition coefficient (logP); type: physicochemical; details: octanol/water
[2] = biological target: T1, Thromboxane-A synthase (Homo sapiens, UniProt P24557); assay: In vitro inhibition of thromboxane synthase (TSI) activity was determined by using human serum levels of TXB2; type: cell-free
T1 sequence (P24557 whole entry): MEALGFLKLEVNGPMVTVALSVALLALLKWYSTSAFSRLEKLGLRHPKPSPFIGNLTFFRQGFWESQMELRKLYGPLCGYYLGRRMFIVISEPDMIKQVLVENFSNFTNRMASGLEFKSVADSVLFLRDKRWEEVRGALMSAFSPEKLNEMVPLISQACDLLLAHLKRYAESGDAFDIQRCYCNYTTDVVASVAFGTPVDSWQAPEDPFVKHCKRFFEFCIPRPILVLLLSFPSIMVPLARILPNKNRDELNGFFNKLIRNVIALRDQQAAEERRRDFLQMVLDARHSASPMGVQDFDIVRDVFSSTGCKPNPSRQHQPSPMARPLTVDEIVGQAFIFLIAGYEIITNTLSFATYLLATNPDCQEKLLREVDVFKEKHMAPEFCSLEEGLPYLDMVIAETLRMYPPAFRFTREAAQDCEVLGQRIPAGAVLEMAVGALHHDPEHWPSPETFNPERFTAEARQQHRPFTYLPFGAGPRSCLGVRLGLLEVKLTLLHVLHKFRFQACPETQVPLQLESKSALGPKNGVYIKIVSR

[3] = biological target: T2, Thromboxane A2 receptor (Homo sapiens, UniProt P21731); assay: In vitro thromboxane receptor antagonism was determined using a human platelet binding assay
T2 sequence (P21731 whole entry): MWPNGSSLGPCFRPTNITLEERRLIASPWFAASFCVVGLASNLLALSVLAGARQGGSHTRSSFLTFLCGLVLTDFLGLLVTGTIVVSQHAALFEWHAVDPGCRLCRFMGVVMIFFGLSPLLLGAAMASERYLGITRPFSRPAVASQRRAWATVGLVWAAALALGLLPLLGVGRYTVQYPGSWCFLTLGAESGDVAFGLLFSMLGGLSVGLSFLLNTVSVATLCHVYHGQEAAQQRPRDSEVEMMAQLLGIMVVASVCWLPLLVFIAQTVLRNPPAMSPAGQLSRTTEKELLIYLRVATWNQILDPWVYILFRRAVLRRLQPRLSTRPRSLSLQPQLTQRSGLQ

Row | Structure (SMILES) | logP [1] | IC50 [2] [nM] | Kd [3] [nM]
1 | CCCCCNC(=O)c1coc(-c2ccc(/C(=C\CCCCC(=O)O)c3cccnc3)cc2)n1 | 5.23 | 31.2 | 153
2 | O=C(O)CCCC/C=C(\c1cccnc1)c1ccccc1-c1nc(C(=O)NCCCCC2CCCCC2)co1 |  |  | 1500
3 | O=C(O)CCCC/C=C(/c1cccnc1)c1cccc(-c2nc(C(=O)NCCCCC3CCCCC3)co2)c1 |  | 19 | 12.3
4 | O=C(O)CCCC/C=C(/c1cccnc1)c1ccccc1-c1nc(C(=O)NCCCCC2CCCCC2)co1 |  |  | 540
5 | O=C(O)CCCC/C=C(\c1cccnc1)c1cccc(C2=N[C@@H](C(=O)NCCCCC3CCCCC3)CO2)c1 |  |  | 830
6 | O=C(O)CCCC/C=C(\c1ccc(-c2nc(C(=O)NCCCCC3CCCCC3)co2)cc1)c1cccnc1 | 7.35 | 550 | 
7 | CCCCCNC(=O)[C@@H]1COC(c2ccc(/C(=C\CCCCC(=O)O)c3cccnc3)cc2)=N1 |  |  | 244
8 | O=C(O)CC/C=C(\c1ccc(-c2nc(C(=O)NCCCCC3CCCCC3)co2)cc1)c1cccnc1 |  | 3170 | 93.3
9 | O=C(O)CCCC/C=C(\c1ccc(C2=N[C@@H](C(=O)NCCCCC3CCCCC3)CO2)cc1)c1cccnc1 |  | 82.1 | 
10 | O=C(O)CCCC/C=C(\c1cccnc1)c1cccc(-c2nc(C(=O)NCCCCC3CCCCC3)co2)c1 |  | 23 | 630
11 | O=C(O)CCCC/C=C(/c1ccc(C2=N[C@@H](C(=O)NCCCCC3CCCCC3)CO2)cc1)c1cccnc1 |  | > 10000 | 
12 | O=C(O)CCCC/C=C(/c1ccc(-c2nc(C(=O)NCCCCC3CCCCC3)co2)cc1)c1cccnc1 |  |  | 147
13 | O=C(O)CCCC/C=C(\c1ccccc1)c1cccnc1 [(E)-ISBOGREL] |  |  | 8200
